Measurements: ChEMBL document CHEMBL1132113, “Inhibitors of efflux pumps in Pseudomonas aeruginosa potentiate the activity of the fluoroquinolone antibacterial levofloxacin” (1999)
In brackets after ≈: the same amount, converted by molar mass. One block for each molecule: values may come before it. Square brackets hold non-standard residues; d marks the D form. Peptide text beside a SMILES is read from it. * marks the point of attachment. Orn = NCCC[C@H](N)C(=O)O; βNA = c1ccc2cc(N*)ccc2c1

Key:
Pseudomonas aeruginosa [1] = assay: Minimum Inhibitory concentration required to reduce the MIC of levofloxacin by 8-fold against PAM 1032; type: functional
Pseudomonas aeruginosa [2] = assay: (§1) Volume of synergy by MacSynergy II 3-D analysis.; type: functional
Pseudomonas aeruginosa [3] = assay: Minimum Inhibitory concentration required to inhibit the growth of Pseudomonas aeruginosa (strain PAM 1032).; type: functional
Pseudomonas aeruginosa [4] = assay: Minimum inhibitory concentration of Levofloxacin in presence at a concentration of 50 ug/mL against PAM 1033; type: functional
Pseudomonas aeruginosa [5] = assay: Minimum inhibitory concentration of Levofloxacin in presence at a concentration of 10 ug/mL against PAM 1033; type: functional
Pseudomonas aeruginosa [6] = assay: Minimum inhibitory concentration of Levofloxacin in presence at a concentration of 20 ug/mL against PAM 1033; type: functional
Pseudomonas aeruginosa [7] = assay: Minimum inhibitory concentration of Levofloxacin in presence at a concentration of 1.25 ug/mL against PAM 1033; type: functional
Pseudomonas aeruginosa [8] = assay: Minimum inhibitory concentration of Levofloxacin in presence at a concentration of 0 ug/mL against PAM 1033; type: functional
Pseudomonas aeruginosa [9] = assay: Minimum Inhibitory concentration required to inhibit the growth of Pseudomonas aeruginosa (strain PAM 1032); type: functional
Pseudomonas aeruginosa [10] = assay: Minimum Inhibitory concentration required to reduce the MIC of levofloxacin by 8-fold against PAM 1033; type: functional
Pseudomonas aeruginosa [11] = assay: Minimum inhibitory concentration of Levofloxacin in presence at a concentration of 5 ug/mL against PAM 1032; type: functional
Pseudomonas aeruginosa [12] = assay: Minimum inhibitory concentration of Levofloxacin in presence at a concentration of 2.50 ug/mL against PAM 1033; type: functional
Pseudomonas aeruginosa [13] = assay: Minimum inhibitory concentration of Levofloxacin in presence at a concentration of 40 ug/mL against PAM 1033; type: functional
Pseudomonas aeruginosa [14] = assay: Minimum inhibitory concentration of Levofloxacin in presence at a concentration of 5 ug/mL against PAM 1034; type: functional
Pseudomonas aeruginosa [15] = assay: Minimum inhibitory concentration of Levofloxacin in presence at a concentration of 0 ug/mL against PAM 1034; type: functional
[16] = Volume of synergy by MacSynergy II 3-D analysis
Pseudomonas aeruginosa [17] = assay: Minimum inhibitory concentration of Levofloxacin in presence at a concentration of 20 ug/mL against PAM 1034; type: functional
Pseudomonas aeruginosa [18] = assay: Minimum inhibitory concentration of Levofloxacin in presence at a concentration of 1.25 ug/mL against PAM 1032; type: functional
Pseudomonas aeruginosa [19] = assay: Minimum inhibitory concentration of Levofloxacin in presence at a concentration of 20 ug/mL against PAM 1032; type: functional
Pseudomonas aeruginosa [20] = assay: Minimum inhibitory concentration of Levofloxacin in presence at a concentration of 10 ug/mL against PAM 1032; type: functional
Pseudomonas aeruginosa [21] = assay: Minimum inhibitory concentration of Levofloxacin in presence at a concentration of 10 ug/mL against PAM 1034; type: functional
Pseudomonas aeruginosa [22] = assay: Minimum inhibitory concentration of Levofloxacin in presence at a concentration of 40 ug/mL against PAM 1034; type: functional
Pseudomonas aeruginosa [23] = assay: Minimum inhibitory concentration of Levofloxacin in presence at a concentration of 40 ug/mL against PAM 1032; type: functional
Pseudomonas aeruginosa [24] = assay: Minimum inhibitory concentration of Levofloxacin in presence at a concentration of 2.5 ug/mL against PAM 1034; type: functional
Pseudomonas aeruginosa [25] = assay: Minimum Inhibitory concentration required to reduce the MIC of levofloxacin by 8-fold against PAM 1034; type: functional
Pseudomonas aeruginosa [26] = assay: Minimum inhibitory concentration of Levofloxacin in presence at a concentration of 1.25 ug/mL against PAM 1034; type: functional
Pseudomonas aeruginosa [27] = assay: Minimum inhibitory concentration of Levofloxacin in presence at a concentration of 0 ug/mL against PAM 1032; type: functional
Pseudomonas aeruginosa [28] = assay: Minimum inhibitory concentration of Levofloxacin in presence at a concentration of 2.5 ug/mL against PAM 1032; type: functional
[29] = as §1

MIC (Pseudomonas aeruginosa [4]): 0.125 µg/mL (≈ 0.298 µM) | MIC (Pseudomonas aeruginosa [5]): 0.06 µg/mL (≈ 0.143 µM) | MIC (Pseudomonas aeruginosa [6]): 0.06 µg/mL (≈ 0.143 µM) | MIC (Pseudomonas aeruginosa [7]): 2 µg/mL (≈ 4.77 µM) | MIC (Pseudomonas aeruginosa [8]): 4 µg/mL (≈ 9.53 µM) | MIC (Pseudomonas aeruginosa [9]): > 512 µg/mL | MIC (Pseudomonas aeruginosa [11]): 0.125 µg/mL (≈ 0.298 µM) | MIC (Pseudomonas aeruginosa [12]): 0.5 µg/mL (≈ 1.19 µM) | MIC (Pseudomonas aeruginosa [13]): 0.06 µg/mL (≈ 0.143 µM) | MIC (Pseudomonas aeruginosa [14]): 0.25 µg/mL (≈ 0.596 µM) | MIC (Pseudomonas aeruginosa [15]): 4 µg/mL (≈ 9.53 µM) | VOLSYN [16]: 2590 | MIC (Pseudomonas aeruginosa [17]): 0.125 µg/mL (≈ 0.298 µM) | MIC (Pseudomonas aeruginosa [18]): 1 µg/mL (≈ 2.38 µM) | MIC (Pseudomonas aeruginosa [19]): 0.06 µg/mL (≈ 0.143 µM) | MIC (Pseudomonas aeruginosa [20]): 0.06 µg/mL (≈ 0.143 µM) | MIC (Pseudomonas aeruginosa [21]): 0.125 µg/mL (≈ 0.298 µM) | MIC (Pseudomonas aeruginosa [22]): 0.125 µg/mL (≈ 0.298 µM) | MIC (Pseudomonas aeruginosa [23]): 0.06 µg/mL (≈ 0.143 µM) | MIC (Pseudomonas aeruginosa [24]): 1 µg/mL (≈ 2.38 µM) | MIC (Pseudomonas aeruginosa [26]): 4 µg/mL (≈ 9.53 µM) | MIC (Pseudomonas aeruginosa [27]): 2 µg/mL (≈ 4.77 µM) | MIC (Pseudomonas aeruginosa [28]): 0.5 µg/mL (≈ 1.19 µM)
Structure (SMILES): NCCC[C@H](NC(=O)[C@@H](N)CCc1ccccc1)C(=O)Nc1cnc2ccccc2c1
MPC8 (Pseudomonas aeruginosa [1]): 5 µg/mL | MPC8 (Pseudomonas aeruginosa [10]): 2.5 µg/mL | MPC8 (Pseudomonas aeruginosa [25]): 5 µg/mL

MIC (Pseudomonas aeruginosa [9]): 256 µg/mL (≈ 627 µM) | VOLSYN [16]: 2220
Structure (SMILES): NCCC[C@H](NC(=O)[C@@H](N)CCc1ccccc1)C(=O)Nc1ccc2c(c1)CCC2
MPC8 (Pseudomonas aeruginosa [1]): 2.5 µg/mL

MIC (Pseudomonas aeruginosa [9]): > 512 µg/mL | VOLSYN [29]: 906
Structure (SMILES): NCCC[C@H](NC(=O)[C@@H](N)CCc1ccccc1)C(=O)Nc1ccccc1
MPC8 (Pseudomonas aeruginosa [1]): >40 µg/mL

Continued, molecule first:

Structure (SMILES): C[C@H](N)C(=O)N[C@@H](CCCN)C(=O)Nc1ccc2ccccc2c1 (H-Ala-[Orn]-βNA)
MPC8 (Pseudomonas aeruginosa [1]): 40 µg/mL | VOLSYN (Pseudomonas aeruginosa [2]): 486 | MIC (Pseudomonas aeruginosa [3]): > 512 µg/mL

Structure (SMILES): NCCC[C@H](NC(=O)[C@@H](N)Cc1ccc(F)cc1)C(=O)Nc1ccc2ccccc2c1
MPC8 (Pseudomonas aeruginosa [1]): 5 µg/mL | VOLSYN (Pseudomonas aeruginosa [2]): 2343 | MIC (Pseudomonas aeruginosa [3]): 512 µg/mL (≈ 1210 µM)

Structure (SMILES): N[C@@H](Cc1ccccc1)C(=O)N[C@@H](Cc1c[nH]cn1)C(=O)Nc1ccc2ccccc2c1 (H-Phe-His-βNA)
MPC8 (Pseudomonas aeruginosa [1]): >40 µg/mL | VOLSYN (Pseudomonas aeruginosa [2]): 463 | MIC (Pseudomonas aeruginosa [3]): > 512 µg/mL

Structure (SMILES): NCCC[C@H](N)C(=O)Nc1ccc2ccccc2c1
MPC8 (Pseudomonas aeruginosa [1]): >40 µg/mL | VOLSYN (Pseudomonas aeruginosa [2]): 183 | MIC (Pseudomonas aeruginosa [3]): > 512 µg/mL
